Data from ChEMBL document CHEMBL1201862, “PubChem BioAssay data set” (2004).
Active and inactive are the calls of the source.

Legend:
[1] = molecular target: Adenosylmethionine-8-amino-7-oxononanoate aminotransferase (Mycobacterium tuberculosis, UniProt P9WQ81); assay: Mycobacterium tuberculosis BioA enzyme inhibitor Measured in Biochemical System Using Plate Reader - 2163-02_Inhibitor_Dose_CherryPick_Activity.; format: functional, Mycobacterium tuberculosis UT205
Cytochrome P450 2C19 = Cytochrome P450 2C19 (Homo sapiens, UniProt P33261); assay: Cytochrome panel assay with activity outcomes. Panel member name: p450-cyp2c19 Compounds with AC50 equal or less than 10 uM are considered active; format: functional; details: read-out: AC50
Cytochrome P450 1A2 = molecular target: T1, Cytochrome P450 1A2 (Homo sapiens, UniProt P05177);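 note: PubChem cytochrome P450 panel assay, CYP1A2 panel member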
T1 sequence (P05177 whole entry): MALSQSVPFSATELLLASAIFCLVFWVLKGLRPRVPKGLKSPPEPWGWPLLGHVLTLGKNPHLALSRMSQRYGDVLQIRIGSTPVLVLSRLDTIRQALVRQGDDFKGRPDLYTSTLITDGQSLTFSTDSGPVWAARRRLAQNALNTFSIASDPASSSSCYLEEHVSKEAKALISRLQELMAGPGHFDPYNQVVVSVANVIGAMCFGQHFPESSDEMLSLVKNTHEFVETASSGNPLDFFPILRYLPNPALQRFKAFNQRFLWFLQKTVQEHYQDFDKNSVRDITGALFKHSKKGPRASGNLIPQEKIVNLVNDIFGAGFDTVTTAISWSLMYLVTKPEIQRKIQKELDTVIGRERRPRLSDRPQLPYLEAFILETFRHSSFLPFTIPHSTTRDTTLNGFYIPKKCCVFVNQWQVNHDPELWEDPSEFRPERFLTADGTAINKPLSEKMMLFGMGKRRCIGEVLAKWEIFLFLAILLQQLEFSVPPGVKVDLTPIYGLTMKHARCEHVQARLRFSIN

Beta Lactamase = Beta Lactamase (Pseudomonas aeruginosa, UniProt Q932Y6); assay: beta-lactamase reporter inhibitor potency, dose response, artefact control for NOD2-RIPK2 interaction inhibitor project, BLA reporter cells, FRET fluorescence (AID 651552); format: functional, cell-based
Fatty acid synthase [2] = molecular target: T2, Fatty acid synthase (Homo sapiens, UniProt P49327); assay: FAS thioesterase domain inhibitors, dose response, biochemical, endpoint fluorescence intensity, uHTS hits (AID 624327); format: functional;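 note: fluorescence from hydrolysis of an O-methyl fluorescein acyl ester substrate by the enzyme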
Fatty acid synthase [3] = molecular target: T2, Fatty acid synthase; assay: FAS thioesterase domain inhibitors, dose response, biochemical, kinetic fluorescence intensity (AID 624326); format: functional;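 note: rate of fluorescence rise from hydrolysis of a fluorogenic O-methyl fluorescein ester substrate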
[4] = Fluorescence-based cell-based high throughput dose response assay for inhibitors of the interaction of nucleotide-binding oligomerization domain containing 2 (NOD2) and the receptor-interacting serine-threonine kinase 2 (RIPK2).; format: functional; details: Homo sapiens
[5] = molecular target: Heat shock protein HSP 90-alpha (Homo sapiens, UniProt P07900); format: functional, organism-based
cells = format: functional
BJ [6] = assay: cells; format: functional, cell-based; details: Homo sapiens
[7] = HepG2 cell cytotoxicity, dose response, cytotoxicity control for non-replicating M. tuberculosis project (AID 489018); format: functional; details: Mycobacterium tuberculosis
Protein RecA = molecular target: T3, Protein RecA (Mycobacterium tuberculosis, UniProt P9WHJ3); assay: Fluorescence Cell-Free Homogeneous Dose Retest to Identify Inhibitors of RecA-Intein Splicing Activity. [Related pubchem assays (depositor defined):AID2097, AID2223, AID489010, AID492950]; format: functional
T3 sequence (P9WHJ3 whole entry): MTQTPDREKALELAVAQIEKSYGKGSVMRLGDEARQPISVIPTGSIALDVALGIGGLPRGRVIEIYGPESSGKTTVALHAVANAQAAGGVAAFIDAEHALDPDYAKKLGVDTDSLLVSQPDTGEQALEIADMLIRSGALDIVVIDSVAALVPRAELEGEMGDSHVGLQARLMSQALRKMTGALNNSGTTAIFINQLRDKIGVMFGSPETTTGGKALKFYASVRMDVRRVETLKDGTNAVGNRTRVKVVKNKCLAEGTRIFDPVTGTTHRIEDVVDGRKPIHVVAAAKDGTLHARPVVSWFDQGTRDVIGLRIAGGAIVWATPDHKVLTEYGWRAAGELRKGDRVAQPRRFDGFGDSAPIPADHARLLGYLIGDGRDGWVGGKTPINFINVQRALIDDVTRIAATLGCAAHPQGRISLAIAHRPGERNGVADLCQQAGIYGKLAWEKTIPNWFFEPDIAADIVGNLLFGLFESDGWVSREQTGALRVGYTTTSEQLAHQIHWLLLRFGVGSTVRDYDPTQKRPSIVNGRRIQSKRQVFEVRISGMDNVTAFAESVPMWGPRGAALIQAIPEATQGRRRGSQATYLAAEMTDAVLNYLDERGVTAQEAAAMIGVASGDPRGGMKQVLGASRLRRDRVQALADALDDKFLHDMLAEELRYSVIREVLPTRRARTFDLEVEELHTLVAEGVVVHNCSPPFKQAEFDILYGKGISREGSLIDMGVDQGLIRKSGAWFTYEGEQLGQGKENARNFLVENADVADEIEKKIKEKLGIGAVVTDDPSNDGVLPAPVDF

INS1 = assay: beta cell apoptosis inhibitors, cytokine rescue, dose response, luminescence, retest (AID 449756); format: functional, cell-based; details: Rattus norvegicus;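 note: cell death triggered by IL-1 beta plus TNF-alpha plus IFN-gamma mixture; protective hits raise ATP signal compared with cytokine alone wells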
[8] = growth suppression of PTEN-null colon cells, dose response, cell-based, HCT116 PTEN knockout (AID 1047); format: functional;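 note: HCT116 colon tumor cells with PTEN knocked out; cells exposed to compound for 60 hours before readout; potency for loss of cell viability measured by luminescence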
[9] = Vero E6 cell cytotoxicity, dose response, cytotoxicity control for non-replicating M. tuberculosis project, secondary assay (AID 492998); format: functional, VeroE6; details: Vero C1008
[10] = molecular target: Neurotensin receptor type 1 (Homo sapiens, UniProt P30989); format: functional;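 note: Image-based confirmatory dose-response assay measuring agonist activity at NTR1; NTR1-expressing U2OS osteosarcoma cells imaged for beta-arrestin GFP spot formation; agonist potency where compounds increase beta-arrestin recruitment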
Genome polyprotein = Genome polyprotein (dengue virus type 2, UniProt P29990); assay: Dengue-2 NS5 methyltransferase inhibitors, primary screen, biochemical, confirmation dose response (AID 588689); format: functional
[11] = growth suppression of beta-catenin-knockout colon cells, dose response, cell-based, HCT116, human colon tumor (AID 1045); format: functional;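 note: HCT116 colon tumor cells with beta catenin knocked out; cells exposed to compound for 60 hours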
[12] = THP-1 cell cytotoxicity, dose response, cytotoxicity control for non-replicating M. tuberculosis project (AID 489025); format: functional
BJ [13] = assay: cytotoxicity toward BJ-TERT-LT-ST fibroblasts, dose response, cell-based, RAS-independent, luminescence (AID 1935); format: functional; details: Homo sapiens;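 note: BJ fibroblasts immortalized with TERT plus LT and ST oncogenes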
[14] = cytotoxicity toward DRD oncogenic fibroblasts, dose response, cell-based, non-viral oncogenic, luminescence (AID 1934); format: functional; details: Homo sapiens
[15] = molecular target: T4, Replicative DNA helicase DnaB (Mycobacterium tuberculosis, UniProt P9WMR3); assay: DnaB intein splicing inhibitors, dose response, biochemical, cell-free fluorescence (AID 449749); format: functional
T4 sequence (P9WMR3 whole entry): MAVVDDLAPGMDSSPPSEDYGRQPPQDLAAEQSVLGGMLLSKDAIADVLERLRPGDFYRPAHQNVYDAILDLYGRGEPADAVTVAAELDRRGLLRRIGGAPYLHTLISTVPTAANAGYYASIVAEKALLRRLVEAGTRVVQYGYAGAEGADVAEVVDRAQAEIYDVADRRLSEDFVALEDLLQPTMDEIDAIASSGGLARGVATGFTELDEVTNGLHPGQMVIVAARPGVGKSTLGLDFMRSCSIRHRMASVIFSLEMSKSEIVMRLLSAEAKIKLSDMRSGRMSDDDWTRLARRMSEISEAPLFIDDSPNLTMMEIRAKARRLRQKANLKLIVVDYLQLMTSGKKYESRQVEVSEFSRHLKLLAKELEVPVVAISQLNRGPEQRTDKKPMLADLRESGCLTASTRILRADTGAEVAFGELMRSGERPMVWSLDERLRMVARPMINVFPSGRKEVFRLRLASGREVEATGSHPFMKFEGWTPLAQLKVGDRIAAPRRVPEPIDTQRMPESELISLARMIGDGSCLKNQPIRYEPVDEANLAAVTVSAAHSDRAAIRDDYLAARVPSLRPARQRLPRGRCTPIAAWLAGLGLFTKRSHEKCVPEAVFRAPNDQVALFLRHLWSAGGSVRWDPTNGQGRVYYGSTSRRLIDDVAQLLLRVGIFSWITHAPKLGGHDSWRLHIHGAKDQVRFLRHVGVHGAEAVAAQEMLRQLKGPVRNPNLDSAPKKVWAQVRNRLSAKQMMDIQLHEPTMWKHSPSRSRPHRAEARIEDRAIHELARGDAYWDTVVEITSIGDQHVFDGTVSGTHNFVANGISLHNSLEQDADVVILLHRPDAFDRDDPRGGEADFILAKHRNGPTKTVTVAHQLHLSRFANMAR

Vero = Vero cell cytotoxicity, cytotoxicity control for flavivirus capping enzyme inhibitors (AID 588742); format: functional; details: Chlorocebus sabaeus
[16] = molecular target: DNA repair and recombination protein RAD54-like (Homo sapiens, UniProt Q92698); assay: inhibitors of human RAD54 branch migration, confirmation, biochemical, fluorescence, cherry-picked samples, dose series (AID 651657); format: functional
H9c2 = assay: cells; format: functional, cell-based; details: Rattus norvegicus, H9c2, Myocardium;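 note: confirmatory concentration-response retest of ultra-high-throughput screening hits for modulation of myocardial damage; cell death induced by hydrogen peroxide oxidative stress; compound pretreatment for 60 min then peroxide exposure for 2 h; potency is for protecting the cells against peroxide damage rather than for killing them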
Melanocortin receptor 4 = Melanocortin receptor 4 (Homo sapiens, UniProt P32245); format: functional, cell-based;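 note: Cell-based assay with luminescence read-out, confirmatory dose-response testing for agonist activity of biased ligands at MC4R; human U2OS cells with tagged receptor and beta-arrestin; potency of agonists that increase receptor coupling to beta-arrestin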
[17] = molecular target: T5, Type-1 angiotensin II receptor (Homo sapiens, UniProt P30556); assay: AT1 receptor antagonists, dose response, selectivity assay for APJ receptor antagonist project, cell-based, uHTS hits (AID 463214); format: functional;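 note: antagonist potency against angiotensin II stimulated AT1 response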
T5 sequence (P30556 whole entry): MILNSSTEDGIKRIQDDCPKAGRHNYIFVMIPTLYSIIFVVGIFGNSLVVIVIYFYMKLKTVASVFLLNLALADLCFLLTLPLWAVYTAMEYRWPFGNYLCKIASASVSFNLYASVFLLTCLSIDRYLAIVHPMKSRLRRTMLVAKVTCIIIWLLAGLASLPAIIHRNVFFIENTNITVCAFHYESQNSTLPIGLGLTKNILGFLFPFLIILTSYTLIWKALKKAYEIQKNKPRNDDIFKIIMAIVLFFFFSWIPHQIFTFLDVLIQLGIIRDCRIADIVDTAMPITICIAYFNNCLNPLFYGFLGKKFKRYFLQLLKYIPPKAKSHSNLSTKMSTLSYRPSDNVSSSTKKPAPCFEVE

Beta-galactosidase = Beta-galactosidase (Escherichia coli, UniProt Q8VNN2); assay: PubChem AID 485352; format: functional
[18] = THP-1 cell cytotoxicity, dose response, cytotoxicity control for Vif-APOBEC3G degradation inhibitor project, THP-1 cells (AID 1117359); format: functional; details: Human immunodeficiency virus 1, THP-1
[19] = molecular target: T6, Low molecular weight phosphotyrosine protein phosphatase (Homo sapiens, UniProt P24666); format: functional; details: read-out: IC50_Mean;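 note: Dose-response confirmation assay measuring inhibition of LMPTP enzyme activity by fluorescence intensity read-out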
T6 sequence (P24666 whole entry): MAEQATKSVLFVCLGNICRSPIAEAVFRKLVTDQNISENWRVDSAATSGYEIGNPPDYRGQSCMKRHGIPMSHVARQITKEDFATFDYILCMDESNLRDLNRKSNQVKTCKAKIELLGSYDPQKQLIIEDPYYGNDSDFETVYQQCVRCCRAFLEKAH

Chain of Beta Lactamase (Q932Y6 whole entry, the tested form may be a part): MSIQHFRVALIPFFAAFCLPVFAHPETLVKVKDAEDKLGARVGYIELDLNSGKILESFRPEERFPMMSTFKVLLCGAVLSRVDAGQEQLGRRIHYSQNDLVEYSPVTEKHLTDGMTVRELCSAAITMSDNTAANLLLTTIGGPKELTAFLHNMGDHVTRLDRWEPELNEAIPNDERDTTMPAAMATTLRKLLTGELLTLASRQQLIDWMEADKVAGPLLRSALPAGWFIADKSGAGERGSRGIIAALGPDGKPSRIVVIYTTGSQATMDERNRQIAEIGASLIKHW
Chain of Melanocortin receptor 4 (P32245 whole entry): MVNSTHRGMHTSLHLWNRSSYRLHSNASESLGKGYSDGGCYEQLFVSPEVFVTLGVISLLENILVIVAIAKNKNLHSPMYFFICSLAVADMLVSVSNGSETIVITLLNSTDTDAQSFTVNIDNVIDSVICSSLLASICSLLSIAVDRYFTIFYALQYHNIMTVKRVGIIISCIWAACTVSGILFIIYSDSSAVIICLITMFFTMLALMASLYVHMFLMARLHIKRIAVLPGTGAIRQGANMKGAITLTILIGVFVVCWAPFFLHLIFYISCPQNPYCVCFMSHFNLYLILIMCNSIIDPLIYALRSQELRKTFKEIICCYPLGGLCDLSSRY
T2 sequence (P49327 whole entry, the tested form may be a part): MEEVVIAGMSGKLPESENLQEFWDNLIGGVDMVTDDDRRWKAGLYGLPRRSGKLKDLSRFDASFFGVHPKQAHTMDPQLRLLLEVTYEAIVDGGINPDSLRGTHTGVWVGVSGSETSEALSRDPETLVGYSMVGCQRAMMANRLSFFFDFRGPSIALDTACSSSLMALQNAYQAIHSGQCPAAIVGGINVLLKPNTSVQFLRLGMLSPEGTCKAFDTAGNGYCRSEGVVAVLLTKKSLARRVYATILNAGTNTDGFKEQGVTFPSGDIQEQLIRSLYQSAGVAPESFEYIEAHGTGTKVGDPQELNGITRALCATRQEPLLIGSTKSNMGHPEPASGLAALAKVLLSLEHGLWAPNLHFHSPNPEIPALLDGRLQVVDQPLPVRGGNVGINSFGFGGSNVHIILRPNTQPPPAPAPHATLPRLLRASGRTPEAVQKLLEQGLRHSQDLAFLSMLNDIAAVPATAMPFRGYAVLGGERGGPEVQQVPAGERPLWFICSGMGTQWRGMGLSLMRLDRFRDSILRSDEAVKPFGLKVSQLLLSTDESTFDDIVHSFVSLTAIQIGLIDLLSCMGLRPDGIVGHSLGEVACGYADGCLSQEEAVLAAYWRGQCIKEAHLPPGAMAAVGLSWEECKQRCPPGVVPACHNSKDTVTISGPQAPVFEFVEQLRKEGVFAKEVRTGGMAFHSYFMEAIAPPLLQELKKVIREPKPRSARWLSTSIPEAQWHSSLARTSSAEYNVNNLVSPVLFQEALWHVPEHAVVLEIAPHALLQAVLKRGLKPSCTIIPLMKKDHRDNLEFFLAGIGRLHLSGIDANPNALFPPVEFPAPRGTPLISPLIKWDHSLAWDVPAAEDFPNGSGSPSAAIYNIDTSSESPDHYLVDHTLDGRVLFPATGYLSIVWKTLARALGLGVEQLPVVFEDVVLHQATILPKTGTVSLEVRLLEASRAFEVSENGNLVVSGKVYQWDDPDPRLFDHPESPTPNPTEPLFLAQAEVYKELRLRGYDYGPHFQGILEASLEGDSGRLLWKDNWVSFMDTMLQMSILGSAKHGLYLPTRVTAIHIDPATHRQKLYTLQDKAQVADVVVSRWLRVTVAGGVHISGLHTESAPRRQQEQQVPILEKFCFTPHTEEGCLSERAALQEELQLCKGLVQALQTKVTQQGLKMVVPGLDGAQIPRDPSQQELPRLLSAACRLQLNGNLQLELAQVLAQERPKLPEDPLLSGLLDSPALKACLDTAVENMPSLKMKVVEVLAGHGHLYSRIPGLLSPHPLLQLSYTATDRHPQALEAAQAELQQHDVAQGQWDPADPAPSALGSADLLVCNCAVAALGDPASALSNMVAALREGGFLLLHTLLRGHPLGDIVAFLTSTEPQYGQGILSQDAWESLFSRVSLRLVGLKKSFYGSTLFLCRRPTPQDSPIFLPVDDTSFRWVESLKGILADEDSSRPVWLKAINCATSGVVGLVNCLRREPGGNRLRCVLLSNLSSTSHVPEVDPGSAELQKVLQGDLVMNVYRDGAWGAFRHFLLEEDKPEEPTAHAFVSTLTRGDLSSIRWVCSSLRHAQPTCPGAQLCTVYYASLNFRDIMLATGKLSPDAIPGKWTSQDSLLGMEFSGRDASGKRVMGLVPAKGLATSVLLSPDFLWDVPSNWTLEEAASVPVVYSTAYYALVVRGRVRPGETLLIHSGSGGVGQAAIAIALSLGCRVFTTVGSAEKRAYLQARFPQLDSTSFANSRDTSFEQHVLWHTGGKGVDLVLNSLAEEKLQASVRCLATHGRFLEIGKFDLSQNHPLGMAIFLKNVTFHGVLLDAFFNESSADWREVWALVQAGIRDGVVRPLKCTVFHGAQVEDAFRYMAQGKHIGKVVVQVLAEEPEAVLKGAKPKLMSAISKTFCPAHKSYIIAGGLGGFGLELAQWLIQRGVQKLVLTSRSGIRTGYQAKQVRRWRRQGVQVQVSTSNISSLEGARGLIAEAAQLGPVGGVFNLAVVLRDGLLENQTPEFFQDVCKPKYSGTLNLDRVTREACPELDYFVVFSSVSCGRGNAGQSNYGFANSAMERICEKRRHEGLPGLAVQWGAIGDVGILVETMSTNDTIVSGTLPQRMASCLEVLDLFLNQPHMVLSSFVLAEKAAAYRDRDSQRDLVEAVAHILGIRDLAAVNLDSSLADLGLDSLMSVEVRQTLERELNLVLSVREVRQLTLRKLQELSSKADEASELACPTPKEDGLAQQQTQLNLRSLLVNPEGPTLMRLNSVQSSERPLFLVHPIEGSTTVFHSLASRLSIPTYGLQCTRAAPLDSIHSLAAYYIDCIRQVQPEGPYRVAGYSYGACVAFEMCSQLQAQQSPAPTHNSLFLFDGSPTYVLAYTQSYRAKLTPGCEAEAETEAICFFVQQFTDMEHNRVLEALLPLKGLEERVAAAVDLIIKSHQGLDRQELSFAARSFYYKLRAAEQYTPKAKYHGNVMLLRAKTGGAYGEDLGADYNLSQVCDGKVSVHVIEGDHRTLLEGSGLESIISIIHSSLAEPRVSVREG
Chain of Adenosylmethionine-8-amino-7-oxononanoate aminotransferase (P9WQ81 whole entry): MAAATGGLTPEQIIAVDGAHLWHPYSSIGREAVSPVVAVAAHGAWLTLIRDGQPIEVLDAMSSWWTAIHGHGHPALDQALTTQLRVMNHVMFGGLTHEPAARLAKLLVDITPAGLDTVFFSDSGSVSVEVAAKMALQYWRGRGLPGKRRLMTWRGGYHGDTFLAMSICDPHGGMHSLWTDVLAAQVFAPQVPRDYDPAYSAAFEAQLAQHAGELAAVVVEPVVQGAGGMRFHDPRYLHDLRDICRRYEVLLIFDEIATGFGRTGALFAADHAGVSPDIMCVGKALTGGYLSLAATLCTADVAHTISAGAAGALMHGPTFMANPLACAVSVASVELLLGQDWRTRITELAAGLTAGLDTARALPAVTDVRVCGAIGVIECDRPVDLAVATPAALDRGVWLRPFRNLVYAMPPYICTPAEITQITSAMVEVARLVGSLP
Chain of Genome polyprotein (P29990 2492-3391 limits assumed): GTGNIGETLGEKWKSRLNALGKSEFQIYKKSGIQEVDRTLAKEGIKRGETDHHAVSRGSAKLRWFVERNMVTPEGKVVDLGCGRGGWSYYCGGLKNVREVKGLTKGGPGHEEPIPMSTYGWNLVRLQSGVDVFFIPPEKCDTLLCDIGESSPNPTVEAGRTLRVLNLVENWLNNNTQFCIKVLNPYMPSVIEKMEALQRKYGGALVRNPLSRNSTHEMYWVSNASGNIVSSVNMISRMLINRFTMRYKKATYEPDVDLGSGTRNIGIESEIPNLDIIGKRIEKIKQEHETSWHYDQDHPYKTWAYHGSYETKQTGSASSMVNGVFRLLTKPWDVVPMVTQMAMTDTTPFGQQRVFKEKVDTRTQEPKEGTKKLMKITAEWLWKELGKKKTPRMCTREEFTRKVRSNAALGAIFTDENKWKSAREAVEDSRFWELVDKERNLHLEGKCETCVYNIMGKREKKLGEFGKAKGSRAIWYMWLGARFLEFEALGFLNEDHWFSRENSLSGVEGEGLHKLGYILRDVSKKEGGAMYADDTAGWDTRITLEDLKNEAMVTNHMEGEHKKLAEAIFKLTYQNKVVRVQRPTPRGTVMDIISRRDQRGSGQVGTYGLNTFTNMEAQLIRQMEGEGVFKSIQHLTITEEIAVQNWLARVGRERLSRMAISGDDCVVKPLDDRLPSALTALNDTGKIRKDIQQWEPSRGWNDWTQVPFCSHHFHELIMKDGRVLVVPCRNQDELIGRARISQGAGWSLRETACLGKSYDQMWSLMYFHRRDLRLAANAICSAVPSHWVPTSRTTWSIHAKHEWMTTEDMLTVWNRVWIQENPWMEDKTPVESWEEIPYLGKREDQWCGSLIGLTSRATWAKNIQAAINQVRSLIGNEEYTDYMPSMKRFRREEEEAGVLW
Chain of Cytochrome P450 2C19 (P33261 whole entry): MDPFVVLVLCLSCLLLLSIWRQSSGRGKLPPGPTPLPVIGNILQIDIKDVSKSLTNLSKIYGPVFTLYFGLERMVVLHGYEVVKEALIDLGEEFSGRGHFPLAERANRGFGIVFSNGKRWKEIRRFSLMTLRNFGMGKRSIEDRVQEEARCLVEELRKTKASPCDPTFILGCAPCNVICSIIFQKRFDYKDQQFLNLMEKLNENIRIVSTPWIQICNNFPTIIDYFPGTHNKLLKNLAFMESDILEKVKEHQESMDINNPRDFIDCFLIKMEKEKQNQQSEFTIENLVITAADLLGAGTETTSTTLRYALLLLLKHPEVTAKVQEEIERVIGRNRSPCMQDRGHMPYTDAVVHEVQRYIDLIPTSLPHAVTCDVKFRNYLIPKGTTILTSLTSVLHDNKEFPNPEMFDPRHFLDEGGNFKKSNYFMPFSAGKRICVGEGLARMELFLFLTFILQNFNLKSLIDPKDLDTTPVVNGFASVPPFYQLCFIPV

Cc1cc(/C=C(/C#N)C(=O)Nc2ccccc2)c(C)n1-c1cccnc1
AC50 [1]: 0.306 µM (active)
AC50 (Cytochrome P450 2C19): 2 µM (inconclusive)
AC50 (Cytochrome P450 1A2): 1.78 µM (inconclusive)

CCOC(=O)[C@]12Cc3cc(C)ccc3[C@H]1N(C1CCCCC1)C(=O)c1ccccc12
IC50 (Beta Lactamase): 39 µM (inactive)
IC50 (Fatty acid synthase [2]): 6.98 µM (active)
IC50 (Fatty acid synthase [3]): 6.17 µM (active)
IC50 [4]: 2.28 µM (active)

CC1=NNC(=O)/C1=C\c1cn(-c2ccccc2)nc1-c1cccs1
AC50 [5]: 1.87 µM (active)
IC50 (Beta Lactamase): 49.8 µM (inactive)
IC50 (cells): 24.8 µM (active)
EC50 (BJ [6]): 4.55 µM (inconclusive)
CC50 [7]: 9.49 µM (active)
EC50 (Protein RecA): 1.44 µM (active)
AC50 (INS1): 7.34 µM (active)
EC50 [8]: 7.38 µM (active)
CC50 [9]: 9.79 µM (active)
EC50 [10]: 5.14 µM (active)
IC50 (Genome polyprotein): > 100 µM (active)
EC50 [11]: 7.11 µM (active)
CC50 [12]: 7.31 µM (active)
EC50 (BJ [13]): 13 µM (active)
EC50 [14]: 5.32 µM (active)
AC50 [15]: 3.97 µM (active)
CC50 (Vero): 10.9 µM (active)
IC50 [4]: 1.55 µM (active)

COc1ccc(OC)c2c(C)cc(NCCN3CCOCC3)nc12
AC50 [16]: 37.6 µM (active)

COc1cccc(-c2cnc3c(NC(C)=O)cc(-c4cc(OC)c(OC)c(OC)c4)cn23)c1
IC50 (H9c2): > 79 µM (inactive)
EC50 (Melanocortin receptor 4): > 89.2 µM (inactive)

COc1ccc(COc2ccsc2C(=O)Nc2ccc(Cl)c(Cl)c2)cc1
EC50 (Melanocortin receptor 4): > 89.2 µM (inactive)

Cc1ccc(C(C[N+](=O)[O-])Sc2ccc(N)cc2)cc1 (stereo not given)
AC50 [5]: 4.99 µM (active)
IC50 [17]: 16.9 µM (active)
EC50 (Beta-galactosidase): 31.3 µM (active)
CC50 [18]: > 40 µM (active)

CCOc1ccc(C(=O)N/N=C/c2cc([N+](=O)[O-])cs2)cc1
IC50 [19]: 14.4 µM (active)

Cc1cccc(-n2c(SCC(=O)N(C)C3CCS(=O)(=O)C3)nc3ccccc3c2=O)c1C (stereo not given)
AC50 [1]: 3.13 µM (active)
